Assay results taken from the Kinase Knowledgebase extract (Sharma et al. 2016).

These compounds were tested against PIK3CG (human) (UniProt P48736) (assay: Inhibition of PIK3CG Kinase Activity).
PIK3CG (human), sequence (P48736 whole entry, looked up): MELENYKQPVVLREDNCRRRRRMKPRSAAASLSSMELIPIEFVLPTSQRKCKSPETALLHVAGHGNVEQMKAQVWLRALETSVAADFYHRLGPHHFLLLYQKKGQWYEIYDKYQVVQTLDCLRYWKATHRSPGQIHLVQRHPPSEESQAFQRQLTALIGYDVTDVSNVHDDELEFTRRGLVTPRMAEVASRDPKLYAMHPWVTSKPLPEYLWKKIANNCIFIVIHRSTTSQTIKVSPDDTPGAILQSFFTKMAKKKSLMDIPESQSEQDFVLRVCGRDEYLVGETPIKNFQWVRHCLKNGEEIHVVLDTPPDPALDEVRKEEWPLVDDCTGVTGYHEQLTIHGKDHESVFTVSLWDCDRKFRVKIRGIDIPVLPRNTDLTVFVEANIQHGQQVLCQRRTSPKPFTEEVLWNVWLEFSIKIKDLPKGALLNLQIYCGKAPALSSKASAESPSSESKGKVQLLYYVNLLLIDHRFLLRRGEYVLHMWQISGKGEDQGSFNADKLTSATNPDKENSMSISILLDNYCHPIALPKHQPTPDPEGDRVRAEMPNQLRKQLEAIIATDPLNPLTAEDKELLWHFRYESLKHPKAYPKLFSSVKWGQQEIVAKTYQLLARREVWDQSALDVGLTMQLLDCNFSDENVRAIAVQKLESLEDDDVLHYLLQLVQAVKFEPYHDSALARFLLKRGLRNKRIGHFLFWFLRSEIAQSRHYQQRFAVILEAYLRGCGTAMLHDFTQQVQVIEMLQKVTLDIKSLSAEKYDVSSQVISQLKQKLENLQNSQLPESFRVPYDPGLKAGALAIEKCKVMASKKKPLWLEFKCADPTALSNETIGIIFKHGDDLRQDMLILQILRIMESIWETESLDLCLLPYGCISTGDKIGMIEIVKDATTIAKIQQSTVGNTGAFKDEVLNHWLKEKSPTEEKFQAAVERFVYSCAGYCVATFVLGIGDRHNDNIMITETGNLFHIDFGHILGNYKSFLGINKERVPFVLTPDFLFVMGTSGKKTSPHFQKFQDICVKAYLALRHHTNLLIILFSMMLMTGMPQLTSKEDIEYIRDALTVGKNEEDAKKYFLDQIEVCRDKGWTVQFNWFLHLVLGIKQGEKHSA
Compound CCn1cc(N2Cc3nc(-c4cnc(OC)c(OCC(F)F)c4)cc(C)c3C2=O)cn1 has a Ki of under 100 nM.
Cc1cc(-c2cncc(C(=O)NC3CCOC3)c2)nc2c1C(=O)N(c1cnn(CC(F)(F)F)c1)C2(C)C (configuration not stated) showed a Ki of under 100 nM.
COc1cc(-c2ccc3c(n2)[C@@H](C)N(c2cccc(C(C)(C)C#N)n2)C3=O)cnc1OC gave a Ki of under 100 nM.
COc1cc(-c2ccc3c(n2)CN(c2cnn(Cc4csc(C)n4)c2)C3=O)cnc1OC gave a Ki of under 100 nM.
Work on COc1ncc(-c2cc(C)c3c(c2)C(C)N(c2cnn(CC(F)(F)F)c2)C3=O)nc1OC (configuration not stated) yielded a Ki of under 100 nM.
COc1cc(-c2cc3c(c(C)n2)C(=O)N(c2cnn(CC(F)(F)F)c2)C3C)cnc1OC (configuration not stated) gave a Ki of under 100 nM.
Compound CCOc1cncc(-c2cc(C)c3c(n2)CN(c2cnn(CC(F)(F)F)c2)C3=O)c1 has a Ki of under 100 nM.
In the case of COc1cncc(-c2cc(C)c3c(n2)C(C)(O)N(c2cnn(CC(F)(F)F)c2)C3=O)c1 (configuration not stated), the Ki is reported as under 100 nM.
COc1cc(-c2ccc3c(n2)CN(c2ccc(OCC(F)(F)F)nc2)C3=O)cnc1OC showed a Ki of 100 to 490 nM.
COc1cncc(-c2cc(C)c3c(n2)CN(c2cnn(CC(F)F)c2)C3=O)c1 was tested, and the Ki was under 100 nM.
CCOc1ncc(-c2cc(C)c3c(n2)C(OC(C)C)N(c2cnn(CC(F)(F)F)c2)C3=O)cc1OC (configuration not stated) showed a Ki of under 100 nM.
CCc1cc(N2Cc3nc(-c4cnc(OC)c(OC)c4)cc(C)c3C2=O)n[nH]1 gave a Ki of under 100 nM.
Work on COc1cc(-c2cc(C)c3c(n2)CN(c2cnn(CC(F)(F)F)c2)C3=O)ccc1C yielded a Ki of under 100 nM.
Cc1cc(-c2cncc(OC(F)F)c2)nc2c1C(=O)N(c1cncc(CC#N)c1)C2C (configuration not stated) was tested, and the Ki was under 100 nM.
Compound CC[C@H]1c2nc(-c3cnc(OC)c(OC)c3)ccc2C(=O)N1c1cnn(CC(F)(F)F)c1 has a Ki of 100 to 490 nM.
With COc1cc(-c2cc(C)c3c(n2)[C@]2(CCCO2)N(c2cnn(CC(F)(F)F)c2)C3=O)cnc1OC(C)C the Ki was under 100 nM.
COc1cc(OC)c(-c2cc(C)c3c(n2)C(C)N(c2cnn(CC(F)(F)F)c2)C3=O)cn1 (configuration not stated) gave a Ki of under 100 nM.
Cc1cc(-c2cncc(C(=O)NCC(C)C)c2)nc2c1C(=O)N(c1cnn(CC(F)(F)F)c1)C2(C)C showed a Ki of under 100 nM.
CCc1cc(N2Cc3nc(-c4cnc(OC)c(OC)c4)cc(C)c3C2=O)nn1CC(F)(F)F was tested, and the Ki was under 100 nM.
With COc1cc(-c2ccc3c(c2)CN(c2cnn([C@H](C)C#N)c2)C3=O)cnc1OC the Ki was under 100 nM.
COc1ncc(-c2cc(C)c3c(n2)CN(c2cnn(CC(F)(F)F)c2)C3=O)cc1OCC1CCCCO1 (configuration not stated) gave a Ki of under 100 nM.
In the case of Cc1cc(-c2cncc(OC(F)F)c2)nc2c1C(=O)N(c1cnn(C(C)(C)C#N)c1)C2C (configuration not stated), the Ki is reported as under 100 nM.
COc1cc(-c2cc(C)c3c(n2)CN(c2cnn(C(C)(C)C#N)c2)C3=O)cnc1O showed a Ki of 100 to 490 nM.
COc1cc(-c2ccc3c(n2)CN(c2cnn(CC4CNC(=O)O4)c2)C3=O)cnc1OC (configuration not stated) was tested, and the Ki was under 100 nM.
Work on COc1cc(-c2cc(C)c3c(n2)CN(c2csc(C)c2)C3=O)cnc1OC yielded a Ki of under 100 nM.
Compound COc1cc(-c2ccc3c(n2)CN(c2cnn(CCn4nc(C)cc4C)c2)C3=O)cnc1OC has a Ki of 100 to 490 nM.
Compound COc1cc(-c2ccc3c(n2)CN(c2cnn(CC4CCN(C(=O)OC(C)(C)C)CC4)c2)C3=O)cnc1OC has a Ki of 100 to 490 nM.
With COc1cc(-c2ccc3c(n2)C(C)N(c2ccnc(CC#N)c2)C3=O)cnc1OC (configuration not stated) the Ki was under 100 nM.
With COc1cc(-c2ccc3c(n2)CN(c2cnn(CC4CCCN4)c2)C3=O)cnc1OC (configuration not stated) the Ki was 100 to 490 nM.
With COc1cc(-c2ccc3c(c2)CN(c2cnn(CCCO)c2)C3=O)cnc1OC the Ki was 100 to 490 nM.
COc1cc(-c2ccc3c(n2)CN(c2ccc(N4CCNCC4)nc2)C3=O)cnc1OC was tested, and the Ki was 100 to 490 nM.
C#CCNC(=O)c1cncc(-c2cc(C)c3c(n2)C(C)(C)N(c2cnn(CC(F)(F)F)c2)C3=O)c1 was tested, and the Ki was under 100 nM.
With COc1cc(-c2ccc3c(n2)CN(c2cncc(CN4CCOCC4)c2)C3=O)cnc1OC the Ki was 100 to 490 nM.
With CCc1n[nH]c(N2Cc3cc(-c4cnc(OC)c(OC)c4)ccc3C2=O)n1 the Ki was under 100 nM.
Cc1cc(-c2cncc(S(=O)(=O)C(C)C)c2)nc2c1C(=O)N(c1cnn(CC(F)(F)F)c1)C2(C)C showed a Ki of under 100 nM.
COc1ncc(-c2cc(C)c3c(n2)CN(c2cnn(CC#N)c2)C3=O)cn1 showed a Ki of under 100 nM.
Work on CCO[C@@]1(C)c2nc(-c3cnc(OC)c(OC)c3)cc(C)c2C(=O)N1c1cnn(CC(F)(F)F)c1 yielded a Ki of under 100 nM.
COc1cncc(-c2cc(C)c3c(n2)C(C)(C)N(c2ccn(CC(C)(C)O)n2)C3=O)c1 showed a Ki of 100 to 490 nM.
In the case of CNC(=O)c1cc(-c2cc(C)c3c(n2)C(C)(C)N(c2cnn(CC(F)(F)F)c2)C3=O)cnc1OC, the Ki is reported as 100 to 490 nM.
Work on Cc1cc(-c2cc(C)c3c(n2)CN(c2cnn(CC(F)(F)F)c2)C3=O)ccn1 yielded a Ki of under 100 nM.
CCOc1cncc(-c2cc(C)c3c(n2)C(OC)N(c2cnn(CC(F)(F)F)c2)C3=O)c1 (configuration not stated) gave a Ki of under 100 nM.
Work on CCNC(=O)c1cc(-c2cc(C)c3c(n2)C(C)N(c2cnn(CC(F)F)c2)C3=O)cnc1OC (configuration not stated) yielded a Ki of under 100 nM.
In the case of Cc1cc(-c2cncc(S(C)(=O)=O)c2)nc2c1C(=O)N(c1cnn(CC(F)(F)F)c1)C2, the Ki is reported as under 100 nM.
With Cc1cc(-c2cncc(OC(F)F)c2)nc2c1C(=O)N(c1cnn(C[C@H](C)O)c1)C2C (some centres not stated) the Ki was under 100 nM.
COc1cc(-c2ccc3c(n2)CN(c2cnn(Cc4ccc(CO)cc4)c2)C3=O)cnc1OC gave a Ki of under 100 nM.
With CCC(=O)Nc1cncc(-c2cc(C)c3c(n2)C(C)(C)N(c2cnn(CC(F)(F)F)c2)C3=O)c1 the Ki was 100 to 490 nM.
In the case of COc1cc(-c2cc(C)c3c(n2)C(C)(C)N(c2cnn(CC(F)F)c2)C3=O)cnc1C, the Ki is reported as under 100 nM.
